± gives the expanded uncertainty stated by the source.
Columns and labels:
[1] = excess molar enthalpy (molar enthalpy of mixing); xn = mol fraction of the nth substance listed; settings: 100 kPa, Liquid, Flow calorimetry
[2] = 101.33 kPa, Liquid, Vibrating tube method

CC1(C)C(=O)[C@]2(C)CC[C@H]1C2 [(-)-fenchone] + CCCCCO
excess molar enthalpy ([1]; 283.15 K, x1 = 0.049): 0.0507 ± 0.00191 kcal/mol
excess molar enthalpy ([1]; 283.15 K, x1 = 0.099): 0.0966 ± 0.00311 kcal/mol
excess molar enthalpy ([1]; 283.15 K, x1 = 0.199): 0.179 ± 0.0055 kcal/mol
excess molar enthalpy ([1]; 283.15 K, x1 = 0.3): 0.231 ± 0.00717 kcal/mol
excess molar enthalpy ([1]; 283.15 K, x1 = 0.397): 0.264 ± 0.00813 kcal/mol
excess molar enthalpy ([1]; 283.15 K, x1 = 0.498): 0.276 ± 0.0086 kcal/mol
excess molar enthalpy ([1]; 283.15 K, x1 = 0.596): 0.269 ± 0.00837 kcal/mol
excess molar enthalpy ([1]; 283.15 K, x1 = 0.702): 0.241 ± 0.00741 kcal/mol
excess molar enthalpy ([1]; 283.15 K, x1 = 0.803): 0.192 ± 0.00598 kcal/mol
excess molar enthalpy ([1]; 283.15 K, x1 = 0.898): 0.109 ± 0.00359 kcal/mol
excess molar enthalpy ([1]; 283.15 K, x1 = 0.949): 0.0574 ± 0.00215 kcal/mol
excess molar enthalpy ([1]; 298.15 K, x1 = 0.049): 0.0559 ± 0.00215 kcal/mol
excess molar enthalpy ([1]; 298.15 K, x1 = 0.099): 0.108 ± 0.00359 kcal/mol
excess molar enthalpy ([1]; 298.15 K, x1 = 0.199): 0.197 ± 0.00621 kcal/mol
excess molar enthalpy ([1]; 298.15 K, x1 = 0.3): 0.259 ± 0.00813 kcal/mol
excess molar enthalpy ([1]; 298.15 K, x1 = 0.397): 0.299 ± 0.00932 kcal/mol
excess molar enthalpy ([1]; 298.15 K, x1 = 0.498): 0.314 ± 0.0098 kcal/mol
excess molar enthalpy ([1]; 298.15 K, x1 = 0.596): 0.306 ± 0.00956 kcal/mol
excess molar enthalpy ([1]; 298.15 K, x1 = 0.702): 0.274 ± 0.0086 kcal/mol
excess molar enthalpy ([1]; 298.15 K, x1 = 0.803): 0.216 ± 0.00669 kcal/mol
excess molar enthalpy ([1]; 298.15 K, x1 = 0.898): 0.125 ± 0.00406 kcal/mol
excess molar enthalpy ([1]; 298.15 K, x1 = 0.949): 0.0645 ± 0.00239 kcal/mol
excess molar enthalpy ([1]; 313.15 K, x1 = 0.049): 0.0588 ± 0.00215 kcal/mol
excess molar enthalpy ([1]; 313.15 K, x1 = 0.099): 0.115 ± 0.00382 kcal/mol
excess molar enthalpy ([1]; 313.15 K, x1 = 0.199): 0.207 ± 0.00645 kcal/mol
excess molar enthalpy ([1]; 313.15 K, x1 = 0.3): 0.276 ± 0.0086 kcal/mol
excess molar enthalpy ([1]; 313.15 K, x1 = 0.397): 0.321 ± 0.01 kcal/mol
excess molar enthalpy ([1]; 313.15 K, x1 = 0.498): 0.337 ± 0.0105 kcal/mol
excess molar enthalpy ([1]; 313.15 K, x1 = 0.596): 0.329 ± 0.0103 kcal/mol
excess molar enthalpy ([1]; 313.15 K, x1 = 0.702): 0.294 ± 0.00908 kcal/mol
excess molar enthalpy ([1]; 313.15 K, x1 = 0.803): 0.229 ± 0.00717 kcal/mol
excess molar enthalpy ([1]; 313.15 K, x1 = 0.898): 0.135 ± 0.0043 kcal/mol
excess molar enthalpy ([1]; 313.15 K, x1 = 0.949): 0.0693 ± 0.00263 kcal/mol
excess molar enthalpy ([1]; 328.15 K, x1 = 0.049): 0.0607 ± 0.00215 kcal/mol
excess molar enthalpy ([1]; 328.15 K, x1 = 0.099): 0.118 ± 0.00382 kcal/mol
excess molar enthalpy ([1]; 328.15 K, x1 = 0.199): 0.212 ± 0.00669 kcal/mol
excess molar enthalpy ([1]; 328.15 K, x1 = 0.3): 0.283 ± 0.00884 kcal/mol
excess molar enthalpy ([1]; 328.15 K, x1 = 0.397): 0.331 ± 0.0103 kcal/mol
excess molar enthalpy ([1]; 328.15 K, x1 = 0.498): 0.349 ± 0.0108 kcal/mol
excess molar enthalpy ([1]; 328.15 K, x1 = 0.596): 0.341 ± 0.0105 kcal/mol
excess molar enthalpy ([1]; 328.15 K, x1 = 0.702): 0.304 ± 0.00932 kcal/mol
excess molar enthalpy ([1]; 328.15 K, x1 = 0.803): 0.236 ± 0.00741 kcal/mol
excess molar enthalpy ([1]; 328.15 K, x1 = 0.898): 0.139 ± 0.00454 kcal/mol
excess molar enthalpy ([1]; 328.15 K, x1 = 0.949): 0.0719 ± 0.00263 kcal/mol

CC1(C)C(=O)[C@]2(C)CC[C@H]1C2 [(-)-fenchone] + CCCCO
excess molar enthalpy ([1]; 283.15 K, x1 = 0.05): 0.0509 ± 0.00191 kcal/mol
excess molar enthalpy ([1]; 283.15 K, x1 = 0.1): 0.0966 ± 0.00311 kcal/mol
excess molar enthalpy ([1]; 283.15 K, x1 = 0.203): 0.175 ± 0.0055 kcal/mol
excess molar enthalpy ([1]; 283.15 K, x1 = 0.3): 0.222 ± 0.00693 kcal/mol
excess molar enthalpy ([1]; 283.15 K, x1 = 0.396): 0.255 ± 0.00789 kcal/mol
excess molar enthalpy ([1]; 283.15 K, x1 = 0.499): 0.267 ± 0.00837 kcal/mol
excess molar enthalpy ([1]; 283.15 K, x1 = 0.603): 0.261 ± 0.00813 kcal/mol
excess molar enthalpy ([1]; 283.15 K, x1 = 0.692): 0.237 ± 0.00741 kcal/mol
excess molar enthalpy ([1]; 283.15 K, x1 = 0.805): 0.184 ± 0.00574 kcal/mol
excess molar enthalpy ([1]; 283.15 K, x1 = 0.898): 0.105 ± 0.00335 kcal/mol
excess molar enthalpy ([1]; 283.15 K, x1 = 0.95): 0.0538 ± 0.00191 kcal/mol
excess molar enthalpy ([1]; 298.15 K, x1 = 0.05): 0.0569 ± 0.00215 kcal/mol
excess molar enthalpy ([1]; 298.15 K, x1 = 0.1): 0.109 ± 0.00359 kcal/mol
excess molar enthalpy ([1]; 298.15 K, x1 = 0.203): 0.194 ± 0.00598 kcal/mol
excess molar enthalpy ([1]; 298.15 K, x1 = 0.3): 0.25 ± 0.00765 kcal/mol
excess molar enthalpy ([1]; 298.15 K, x1 = 0.396): 0.289 ± 0.00884 kcal/mol
excess molar enthalpy ([1]; 298.15 K, x1 = 0.499): 0.305 ± 0.00956 kcal/mol
excess molar enthalpy ([1]; 298.15 K, x1 = 0.603): 0.299 ± 0.00932 kcal/mol
excess molar enthalpy ([1]; 298.15 K, x1 = 0.692): 0.27 ± 0.00837 kcal/mol
excess molar enthalpy ([1]; 298.15 K, x1 = 0.805): 0.208 ± 0.00645 kcal/mol
excess molar enthalpy ([1]; 298.15 K, x1 = 0.898): 0.122 ± 0.00382 kcal/mol
excess molar enthalpy ([1]; 298.15 K, x1 = 0.95): 0.0617 ± 0.00239 kcal/mol
excess molar enthalpy ([1]; 313.15 K, x1 = 0.05): 0.0609 ± 0.00215 kcal/mol
excess molar enthalpy ([1]; 313.15 K, x1 = 0.1): 0.117 ± 0.00382 kcal/mol
excess molar enthalpy ([1]; 313.15 K, x1 = 0.203): 0.208 ± 0.00645 kcal/mol
excess molar enthalpy ([1]; 313.15 K, x1 = 0.3): 0.269 ± 0.00837 kcal/mol
excess molar enthalpy ([1]; 313.15 K, x1 = 0.396): 0.313 ± 0.0098 kcal/mol
excess molar enthalpy ([1]; 313.15 K, x1 = 0.499): 0.331 ± 0.0103 kcal/mol
excess molar enthalpy ([1]; 313.15 K, x1 = 0.603): 0.325 ± 0.01 kcal/mol
excess molar enthalpy ([1]; 313.15 K, x1 = 0.692): 0.292 ± 0.00908 kcal/mol
excess molar enthalpy ([1]; 313.15 K, x1 = 0.805): 0.222 ± 0.00693 kcal/mol
excess molar enthalpy ([1]; 313.15 K, x1 = 0.898): 0.132 ± 0.0043 kcal/mol
excess molar enthalpy ([1]; 313.15 K, x1 = 0.95): 0.0664 ± 0.00239 kcal/mol
excess molar enthalpy ([1]; 328.15 K, x1 = 0.05): 0.0636 ± 0.00239 kcal/mol
excess molar enthalpy ([1]; 328.15 K, x1 = 0.1): 0.122 ± 0.00382 kcal/mol
excess molar enthalpy ([1]; 328.15 K, x1 = 0.203): 0.217 ± 0.00669 kcal/mol
excess molar enthalpy ([1]; 328.15 K, x1 = 0.3): 0.282 ± 0.00884 kcal/mol
excess molar enthalpy ([1]; 328.15 K, x1 = 0.396): 0.328 ± 0.0103 kcal/mol
excess molar enthalpy ([1]; 328.15 K, x1 = 0.499): 0.348 ± 0.0108 kcal/mol
excess molar enthalpy ([1]; 328.15 K, x1 = 0.603): 0.341 ± 0.0105 kcal/mol
excess molar enthalpy ([1]; 328.15 K, x1 = 0.692): 0.305 ± 0.00956 kcal/mol
excess molar enthalpy ([1]; 328.15 K, x1 = 0.805): 0.23 ± 0.00717 kcal/mol
excess molar enthalpy ([1]; 328.15 K, x1 = 0.898): 0.137 ± 0.0043 kcal/mol
excess molar enthalpy ([1]; 328.15 K, x1 = 0.95): 0.0686 ± 0.00263 kcal/mol

CCCCO [butan-1-ol]
mass density ([2]; 283.15 K): 817.11 ± 0.41 kg/m3
mass density ([2]; 298.15 K): 805.72 ± 0.41 kg/m3
mass density ([2]; 313.15 K): 794.4 ± 0.41 kg/m3
mass density ([2]; 328.15 K): 782.11 ± 0.41 kg/m3

CCCCCO [pentan-1-ol]
mass density ([2]; 283.15 K): 821.79 ± 0.42 kg/m3
mass density ([2]; 298.15 K): 810.9 ± 0.42 kg/m3
mass density ([2]; 313.15 K): 799.8 ± 0.42 kg/m3
mass density ([2]; 328.15 K): 788.82 ± 0.42 kg/m3
